Measurements: paper PMC5077133, “Towards Development of Small Molecule Lipid II Inhibitors as Novel Antibiotics” (PLoS ONE, 2016)
Where two headings read alike, the source gives them in different places.

Tests used:
[1] = tested on: E. aerogenes ATCC 13048; assay: Antibacterial activity (MIC, broth dilution); format: cell-based; conditions: CLSI
Method: (§1) Determination of the Minimal Inhibitory Concentrations (MIC) by dilution was carried out by broth dilution according to CLSI standards.

[2] = tested on: E. cloacae ATCC 13047; assay: Antibacterial activity (MIC, broth dilution); format: cell-based; conditions: CLSI
Method: as §1

[3] = tested on: K. pneumoniae NR-15410 (KPC); assay: Antibacterial activity (MIC, broth dilution); format: cell-based; conditions: CLSI
Method: as §1

[4] = tested on: P. aeruginosa X13273; assay: Antibacterial activity (MIC, broth dilution); format: cell-based; conditions: CLSI, in µg/mL
Method: as §1

[5] = tested on: S. aureus HFH-30123 (MRSA); assay: Antibacterial activity (MIC, broth dilution); format: cell-based; conditions: CLSI
Method: as §1

[6] = tested on: S. aureus MRSA 1094; assay: Antibacterial activity (MIC, broth dilution); format: cell-based; conditions: CLSI
Method: as §1

[7] = tested on: P. aeruginosa PA01; assay: Antibacterial activity (MIC, broth dilution); format: cell-based; conditions: CLSI
Method: as §1

[8] = tested on: K. pneumoniae NR-15411 (KPC); assay: Antibacterial activity (MIC, broth dilution); format: cell-based; conditions: CLSI
Method: as §1

[9] = tested on: DNA synthesis in E. faecalis EF1509; assay: Macromolecular synthesis assay: DNA synthesis; format: cell-based; conditions: Enterococcus faecalis; E. faecalis EF1509, [3H]Thymidine incorporation; read-out: IC50 inhibition of DNA synthesis
Method: (§2) The effect of compounds on the macromolecular synthetic pathways of E. faecalis EF1509 were measured as follows: Cells were grown at 35°C overnight on Tryptic Soy Agar Broth (Remel, Lenexa, KS), and growth from the plate was used to inoculate 15 ml of Mueller Hinton Broth. The culture was grown to early exponential growth phase (OD600 = 0.2 to 0.3) while incubating in a shaker at 35°C and 150 rpm. For each macromolecular assay, the test agents were added at either 0, 0.25, 0.5, 1, 2, or 4, -fold their respective MIC values for E. faecalis EF1509.
For DNA and protein synthesis, 100 μl of cell culture reaching early exponential phase was added to triplicate wells containing various concentrations of test compound or control antibiotics (2.5 μl) at 40X the final concentration in 100% DMSO (0.1% methanol in water for Rifampicin). A 2.5% DMSO treated culture served as the “no drug” control for all experiments. Cells were added in 1.25X strength MHB to account for the volume of drug added to each reaction, or in M9 minimal medium for protein synthesis reactions. […] After washing five times with 200 μl per well of cold 5% TCA, the filters were allowed to dry, and then counted using a Packard Top Count microplate scintillation counter.

[10] = Pharmacokinetic study in mice; format: in vivo, male CD1 mice; parameters: AUClast/D: unit not given here; conditions: for half-life / bioavailability: male, CD1, mouse
[11] = tested on: cell wall synthesis in E. faecalis EF1509; assay: Macromolecular synthesis assay: cell wall synthesis; format: cell-based; conditions: Enterococcus faecalis; E. faecalis EF1509, [14C] N-acetyl-glucosamine incorporation; read-out: IC50 inhibition of cell wall synthesis
Method: The effect of compounds on the macromolecular synthetic pathways of E. faecalis EF1509 were measured as follows: Cells were grown at 35°C overnight on Tryptic Soy Agar Broth (Remel, Lenexa, KS), and growth from the plate was used to inoculate 15 ml of Mueller Hinton Broth. The culture was grown to early exponential growth phase (OD600 = 0.2 to 0.3) while incubating in a shaker at 35°C and 150 rpm. For each macromolecular assay, the test agents were added at either 0, 0.25, 0.5, 1, 2, or 4, -fold their respective MIC values for E. faecalis EF1509. […] For cell wall synthesis, bacterial cells in early exponential growth phase were transferred to M9 minimal medium and added to 1.5 ml eppendorf tubes (100 μl/tube) containing various concentrations of test compound or control antibiotics (2.5 μl) at 40X the final concentration in 100% DMSO as described above. Following a 5 min incubation at 37°C, [^14C] N-acetyl-glucosamine (0.4 μCi/reaction) was added to each tube and incubated for 45 min in a 37°C heating block. Reactions were stopped through the addition of 100 μl of 8% SDS to each tube. […] After washing three times with 5 ml of 0.1% SDS, the filters were rinsed two times with 5 ml of deionized water, allowed to dry, and then counted using a Beckman LS3801 liquid scintillation counter.

[12] = tested on: E. faecalis EF1509; assay: MIC for the strain used in macromolecular synthesis assays; format: cell-based; conditions: Enterococcus faecalis
Method: as §1, §2

[13] = tested on: A. baumanii ATCC 19606; assay: Antibacterial activity (MIC, broth dilution); format: cell-based, Acinetobacter baumanii; conditions: CLSI, in µg/mL
Procedure, shortened: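 MIC determined by broth dilution following CLSI standards, using A. baumanii ATCC 19606.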

[14] = PO 5 mg/kg, male CD1 mice, 5 mg/kg
[15] = mouse, plasma, IV 2.5 mg/kg, male CD1 mice
[16] = mouse, plasma, PO 5 mg/kg, male CD1 mice

Structure (SMILES)	Antibacterial activity (MIC) E. aerogenes ATCC 13048 [1] [µg/mL]	Antibacterial activity (MIC) E. cloacae ATCC 13047 [2] [µg/mL]	Antibacterial activity (MIC) K. pneumoniae NR-15410 (KPC) [3] [µg/mL]	Antibacterial activity (MIC) P. aeruginosa X13273 [4]	Antibacterial activity (MIC) S. aureus HFH-30123 (MRSA) [5] [µg/mL]	Antibacterial activity (MIC) S. aureus MRSA 1094 [6] [µg/mL]	Antibacterial activity (MIC) P. aeruginosa PA01 [7] [µg/mL]	Antibacterial activity (MIC) K. pneumoniae NR-15411 (KPC) [8] [µg/mL]	IC50 [9] [µg/mL]	IC50 [11] [µg/mL]	MIC [12] [µg/mL]	Antibacterial activity (MIC) A. baumanii ATCC 19606 [13]	also measured
CN(C)c1ccc(/C=C/c2cc(-c3ccc(Br)cc3)cc(-c3ccc(Br)cc3)[o+]2)cc1 [6jc48-1]	≥ 64	≥ 64	≥ 64	>=64	32	32	≥ 64	≥ 64	8.3	3.8	4	>=64	AUClast/D ([10]; IV […], male CD1 mice): 536±47; AUCExtrap ([10]; PO 5 mg/kg, male CD1 mice): 48.6%; AUClast/D ([10]; PO 5 mg/kg, male CD1 mice): 9.4; Vss_obs ([10]; PO 5 mg/kg, male CD1 mice): 1.75 L/kg; Finf (bioavailability) [10, 14]: 2.54%; T1/2 [10, 14]: 2.78 h; half-life ([10]; plasma, iv, […], male CD1 mice): > 780 min; half-life ([10]; plasma, po, 5 mg/kg, PO 5 mg/kg, male CD1 mice): ~180 min; bioavailability ([10]; plasma, po, 5 mg/kg, PO 5 mg/kg, male CD1 mice, read-out: Finf (bioavailability)): ~2.5%; bioavailability ([10]; plasma, po, 5 mg/kg, PO 5 mg/kg, male CD1 mice, read-out: Flast (bioavailability)): 1.9%; AUC(0-inf) [10, 15]: 1770 ± 120 ng·h/mL; AUC(0-t) [10, 15]: 1340 ± 117 ng·h/mL; Cmax [10, 15]: 1040 ± 323 ng/mL; MRT [10, 15]: 7.29 ± 0.27 h; clearance ([10]; mouse, plasma, IV 2.5 mg/kg, male CD1 mice, read-out: Cl_obs): 23.6 ± 1.7 mL/min/kg; AUC(0-inf) [10, 16]: 90 ng·h/mL; AUC(0-t) [10, 16]: 46.9 ng·h/mL; Cmax [10, 16]: 19.1 ng/mL
CN1/C(=C/C=C/c2cc(-c3ccccc3)cc(-c3ccccc3)[o+]2)C(C)(C)c2ccccc21 [BAS-00127538, (1-Methyl-2,4-diphenyl-6-((1E,3E)-3-(1,3,3-trimethylindolin-2-ylidene)prop-1-en-1-yl)pyryl-1-ium) tetrafluoroborate, reference compound]	16	32	8	>=64	0.5	0.5	64	16	1.8	1.1	2	4	Detection in plasma upon oral administration ([10]; oral administration (not shown)): could not be detected
